Tested on: SK-OV-3
Assay: Cytotoxicity against human SKOV3 cells assessed as cellular growth at 10 uM after 48 hrs by SRB assay relative to control
Type: functional

O=C(O)CCCn1c2c(sc3ccccc32)c(=O)n2nnc(-c3ccccc3)c12 showed an Activity of 90.82%.
